Measurements reported in PubChem BioAssay (NCI).
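1) Cells in 96-well plates. 2) Compound, 48 h, 5 concentrations. 3) Linear interpolation between surrounding doses. 4) Unreached endpoint = highest concentration. GI50 marks 50% less growth. The concentration for full growth arrest is given as TGI.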

Key:
Experiment in all cases: NCI tumour cell line growth inhibition, 48 h
LOX IMVI melanoma = system: LOX IMVI melanoma
SW-620 colon = system: SW-620 colon
SNB-19 CNS = system: SNB-19 CNS
HS 578T breast = system: HS 578T breast
HCT-116 colon = system: HCT-116 colon
NCI-H522 lung = system: NCI-H522 lung
HL-60(TB) leukemia = system: HL-60(TB) leukemia
SF-295 CNS = system: SF-295 CNS
SF-539 CNS = system: SF-539 CNS
MDA-MB-435 = system: MDA-MB-435
OVCAR-5 ovarian = system: OVCAR-5 ovarian
786-0 renal = system: 786-0 renal
M14 melanoma = system: M14 melanoma
A549 NSCLC = system: A549 NSCLC
CCRF-CEM leukemia = system: CCRF-CEM leukemia
NCI/ADR-RES ovarian = system: NCI/ADR-RES ovarian
HCT-15 colon = system: HCT-15 colon
CAKI-1 renal = system: CAKI-1 renal
MCF7 breast = system: MCF7 breast
DU-145 prostate = system: DU-145 prostate
SK-MEL-5 melanoma = system: SK-MEL-5 melanoma
UACC-257 melanoma = system: UACC-257 melanoma
RPMI-8226 leukemia = system: RPMI-8226 leukemia
UO-31 renal = system: UO-31 renal
MDA-MB-231 breast = system: MDA-MB-231 breast
SK-MEL-2 melanoma = system: SK-MEL-2 melanoma
T-47D breast = system: T-47D breast
KM12 colon = system: KM12 colon
PC-3 prostate = system: PC-3 prostate
MOLT-4 leukemia = system: MOLT-4 leukemia
NCI-H460 lung = system: NCI-H460 lung
IGROV1 ovarian = system: IGROV1 ovarian
RXF 393 renal = system: RXF 393 renal
A498 renal = system: A498 renal
SNB-75 CNS = system: SNB-75 CNS
ACHN renal = system: ACHN renal
UACC-62 melanoma = system: UACC-62 melanoma
SF-268 CNS = system: SF-268 CNS
COLO 205 colon = system: COLO 205 colon
OVCAR-8 ovarian = system: OVCAR-8 ovarian
SN12C renal = system: SN12C renal
K-562 leukemia = system: K-562 leukemia
MALME-3M melanoma = system: MALME-3M melanoma
SK-MEL-28 melanoma = system: SK-MEL-28 melanoma
BT-549 breast = system: BT-549 breast
SK-OV-3 ovarian = system: SK-OV-3 ovarian
NCI-H226 lung = system: NCI-H226 lung
OVCAR-3 ovarian = system: OVCAR-3 ovarian
HOP-92 NSCLC = system: HOP-92 NSCLC
HOP-62 NSCLC = system: HOP-62 NSCLC
NCI-H23 lung = system: NCI-H23 lung
HCC-2998 colon = system: HCC-2998 colon
SR leukemia = system: SR leukemia
TK-10 renal = system: TK-10 renal

Nc1nc(N)c2c(n1)NC(c1sc(Cl)nc1Cl)CC(c1ccccc1)=N2 (stereo not drawn)
GI50 (LOX IMVI melanoma): 5.39 µM
TGI (LOX IMVI melanoma): 18.1 µM
GI50 (SW-620 colon): 3.42 µM
TGI (SW-620 colon): 13.3 µM
GI50 (SNB-19 CNS): 5.15 µM
TGI (SNB-19 CNS): 17.8 µM
GI50 (HS 578T breast): 2.44 µM
TGI (HS 578T breast): 11.1 µM
GI50 (HCT-116 colon): 3.7 µM
TGI (HCT-116 colon): 13.9 µM
GI50 (NCI-H522 lung): 3.27 µM
TGI (NCI-H522 lung): 14.3 µM
GI50 (HL-60(TB) leukemia): 2.04 µM
TGI (HL-60(TB) leukemia): 8.22 µM
GI50 (SF-295 CNS): 3.06 µM
TGI (SF-295 CNS): 13.3 µM
GI50 (SF-539 CNS): 2.69 µM
TGI (SF-539 CNS): 9.97 µM
GI50 (MDA-MB-435): 1.47 µM
TGI (MDA-MB-435): 10.2 µM
GI50 (OVCAR-5 ovarian): 10.2 µM
TGI (OVCAR-5 ovarian): 21.9 µM
GI50 (786-0 renal): 5.05 µM
TGI (786-0 renal): 19.2 µM
GI50 (M14 melanoma): 2.64 µM
TGI (M14 melanoma): 10.4 µM
GI50 (A549 NSCLC): 5.02 µM
TGI (A549 NSCLC): 19.4 µM
GI50 (CCRF-CEM leukemia): 3.21 µM
TGI (CCRF-CEM leukemia): 16.9 µM
GI50 (NCI/ADR-RES ovarian): 3.13 µM
TGI (NCI/ADR-RES ovarian): 12.4 µM
GI50 (HCT-15 colon): 3.05 µM
TGI (HCT-15 colon): 15.2 µM
GI50 (CAKI-1 renal): 3.28 µM
TGI (CAKI-1 renal): 19.6 µM
GI50 (MCF7 breast): 3.56 µM
TGI (MCF7 breast): 20.4 µM
GI50 (DU-145 prostate): 11.2 µM
TGI (DU-145 prostate): 24.2 µM
GI50 (SK-MEL-5 melanoma): 3.69 µM
TGI (SK-MEL-5 melanoma): 13.9 µM
GI50 (UACC-257 melanoma): 6.77 µM
TGI (UACC-257 melanoma): 20.9 µM
GI50 (RPMI-8226 leukemia): 4.99 µM
TGI (RPMI-8226 leukemia): 31.5 µM
GI50 (UO-31 renal): 3.04 µM
TGI (UO-31 renal): 15.6 µM
GI50 (MDA-MB-231 breast): 3.86 µM
TGI (MDA-MB-231 breast): 16.5 µM
GI50 (SK-MEL-2 melanoma): 2.98 µM
TGI (SK-MEL-2 melanoma): 10.9 µM
GI50 (T-47D breast): 3.35 µM
TGI (T-47D breast): 22.1 µM
GI50 (KM12 colon): 3.79 µM
TGI (KM12 colon): 15.3 µM
GI50 (PC-3 prostate): 5.89 µM
TGI (PC-3 prostate): 24 µM
GI50 (MOLT-4 leukemia): 4.06 µM
TGI (MOLT-4 leukemia): 20.8 µM
GI50 (NCI-H460 lung): 4.05 µM
TGI (NCI-H460 lung): 14.6 µM
GI50 (IGROV1 ovarian): 7.08 µM
TGI (IGROV1 ovarian): 23.4 µM
GI50 (RXF 393 renal): 2.48 µM
TGI (RXF 393 renal): 9.5 µM
GI50 (A498 renal): 1.28 µM
TGI (A498 renal): 8.92 µM
GI50 (SNB-75 CNS): 1.63 µM
TGI (SNB-75 CNS): 7.59 µM
GI50 (ACHN renal): 4.56 µM
TGI (ACHN renal): 16.8 µM
GI50 (UACC-62 melanoma): 3.05 µM
TGI (UACC-62 melanoma): 13.9 µM
GI50 (SF-268 CNS): 5.68 µM
TGI (SF-268 CNS): 22.5 µM
GI50 (COLO 205 colon): 4.18 µM
TGI (COLO 205 colon): 15.4 µM
GI50 (OVCAR-8 ovarian): 4.8 µM
TGI (OVCAR-8 ovarian): 22.2 µM
GI50 (SN12C renal): 5.83 µM
TGI (SN12C renal): 18.5 µM
GI50 (K-562 leukemia): 1.68 µM
TGI (K-562 leukemia): 20.9 µM
GI50 (MALME-3M melanoma): 6.33 µM
TGI (MALME-3M melanoma): 19.1 µM
GI50 (SK-MEL-28 melanoma): 4.26 µM
TGI (SK-MEL-28 melanoma): 17.8 µM
GI50 (BT-549 breast): 3.93 µM
TGI (BT-549 breast): 16.1 µM
GI50 (SK-OV-3 ovarian): 3.6 µM
TGI (SK-OV-3 ovarian): 15.3 µM
GI50 (NCI-H226 lung): 13.7 µM
TGI (NCI-H226 lung): 35.1 µM
GI50 (OVCAR-3 ovarian): 3.6 µM
TGI (OVCAR-3 ovarian): 13.7 µM
GI50 (HOP-92 NSCLC): 3.72 µM
TGI (HOP-92 NSCLC): 18 µM
GI50 (HOP-62 NSCLC): 3.72 µM
TGI (HOP-62 NSCLC): 18 µM
GI50 (NCI-H23 lung): 8.23 µM
TGI (NCI-H23 lung): 23.3 µM
GI50 (HCC-2998 colon): 10.3 µM
TGI (HCC-2998 colon): 21.9 µM
GI50 (SR leukemia): 2.25 µM
TGI (SR leukemia): 8.86 µM
GI50 (TK-10 renal): 11.5 µM
TGI (TK-10 renal): 24.1 µM
